According to ChEMBL document CHEMBL6083209, “Pyridazinone-based derivatives as anticancer agents endowed with anti-microbial activity: molecular design, synthesis, and biological investigation” (RSC Med Chem, 2024):
Converted amounts (≈) assume the structure as drawn.

Assays:
Candida albicans = experiment: Antimicrobial activity against Candida albicans ATCC 10231 by broth microdilution method
Staphylococcus aureus [1] = experiment: Antimicrobial activity against Staphylococcus aureus ATCC 29213 by broth microdilution method
Escherichia coli = experiment: Antimicrobial activity against Escherichia coli ATCC 25922 by broth microdilution method
Staphylococcus aureus [2] = experiment: Antimicrobial activity against Staphylococcus aureus; format: functional
[3] = biological target: Vascular endothelial growth factor receptor 2 (Homo sapiens, UniProt P35968); experiment: Inhibition of VEGFR2 (unknown origin)
Chain of Vascular endothelial growth factor receptor 2 (P35968 whole entry): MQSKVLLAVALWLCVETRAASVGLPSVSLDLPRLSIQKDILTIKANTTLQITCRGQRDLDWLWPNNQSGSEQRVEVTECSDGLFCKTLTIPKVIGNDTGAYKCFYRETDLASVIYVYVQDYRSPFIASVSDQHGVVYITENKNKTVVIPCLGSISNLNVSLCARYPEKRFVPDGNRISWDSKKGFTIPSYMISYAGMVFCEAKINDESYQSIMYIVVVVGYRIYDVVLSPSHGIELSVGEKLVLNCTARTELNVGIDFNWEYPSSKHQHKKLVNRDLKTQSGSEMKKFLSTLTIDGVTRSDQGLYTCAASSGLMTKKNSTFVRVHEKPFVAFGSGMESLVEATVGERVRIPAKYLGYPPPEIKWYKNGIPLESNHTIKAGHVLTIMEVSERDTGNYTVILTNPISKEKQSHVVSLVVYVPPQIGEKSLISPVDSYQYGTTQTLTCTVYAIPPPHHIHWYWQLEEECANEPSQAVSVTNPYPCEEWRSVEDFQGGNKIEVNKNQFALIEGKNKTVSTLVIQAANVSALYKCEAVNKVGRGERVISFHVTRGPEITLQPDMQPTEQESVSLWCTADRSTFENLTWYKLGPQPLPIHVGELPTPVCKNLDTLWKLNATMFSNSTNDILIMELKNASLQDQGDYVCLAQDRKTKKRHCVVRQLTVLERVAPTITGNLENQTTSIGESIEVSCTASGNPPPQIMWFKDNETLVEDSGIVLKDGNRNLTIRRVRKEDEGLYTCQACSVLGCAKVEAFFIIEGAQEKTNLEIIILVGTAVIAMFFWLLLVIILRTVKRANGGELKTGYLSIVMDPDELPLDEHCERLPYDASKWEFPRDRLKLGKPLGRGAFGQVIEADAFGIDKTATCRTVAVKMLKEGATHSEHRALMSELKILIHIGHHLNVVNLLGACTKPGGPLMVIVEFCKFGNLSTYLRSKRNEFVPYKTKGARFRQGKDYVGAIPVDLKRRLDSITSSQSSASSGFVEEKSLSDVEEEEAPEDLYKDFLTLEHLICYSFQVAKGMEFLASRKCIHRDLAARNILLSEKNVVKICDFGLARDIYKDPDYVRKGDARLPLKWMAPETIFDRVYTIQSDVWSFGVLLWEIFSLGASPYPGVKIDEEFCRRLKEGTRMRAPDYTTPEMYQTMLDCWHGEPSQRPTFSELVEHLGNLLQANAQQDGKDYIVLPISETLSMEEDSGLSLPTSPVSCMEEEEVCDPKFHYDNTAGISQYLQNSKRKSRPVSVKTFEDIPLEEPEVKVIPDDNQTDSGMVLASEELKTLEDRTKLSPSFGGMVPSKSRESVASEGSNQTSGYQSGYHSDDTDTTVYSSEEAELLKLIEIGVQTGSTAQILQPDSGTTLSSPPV

| MIC (Candida albicans) [µg/mL] | MIC (Staphylococcus aureus [1]) [µg/mL] | MIC (Escherichia coli) [µg/mL] | MIC (Staphylococcus aureus [2]) [µg/mL] | IC50 [3] [nM] | SMILES |
| --- | --- | --- | --- | --- | --- |
| 512 (≈ 1270 µM) | > 1020 | > 1020 | – | – | O=C(NC(=S)Nc1ccc(-c2ccc(=O)[nH]n2)cc1)c1ccc(Cl)c(F)c1 |
| 512 (≈ 1320 µM) | 512 (≈ 1320 µM) | 256 (≈ 662 µM) | – | – | O=C1CCC(c2ccc(NC(=S)NC(=O)c3ccc(Cl)cc3)cc2)=NN1 |
| 256 (≈ 741 µM) | 512 (≈ 1480 µM) | 1020 (≈ 2970 µM) | – | – | O=c1ccc(-c2ccc(NS(=O)(=O)c3cccc(F)c3)cc2)n[nH]1 |
| – | – | – | 0.3 (≈ 0.76 µM) | – | O=C(Nc1ccc2c(c1)OC(F)(F)O2)Nc1ccc(Cl)c(C(F)(F)F)c1 |
| 512 (≈ 1120 µM) | 1020 (≈ 2250 µM) | 256 (≈ 562 µM) | – | – | O=C(NC(=S)Nc1ccc(/C=C/c2ccc(=O)[nH]n2)cc1)c1cccc(Br)c1 |
| – | – | – | 0.5 (≈ 1.28 µM) | – | O=C(Nc1ccc(Oc2ccc(=O)[nH]n2)cc1)Nc1ccc(Cl)c(Cl)c1 |
| – | – | – | > 128 | 1800 | O=C(Nc1ccc(-c2ccc(=O)[nH]n2)cc1)Nc1ccc(Cl)c(C(F)(F)F)c1 |
| 512 (≈ 1190 µM) | 512 (≈ 1190 µM) | 256 (≈ 594 µM) | – | – | O=C1CCC(c2ccc(NC(=S)NC(=O)c3ccc(Br)cc3)cc2)=NN1 |
| – | – | – | 0.06 (≈ 0.143 µM) | – | O=C(NC(=S)Nc1ccc(Cl)cn1)c1ccc(N2CCCCC2)c([N+](=O)[O-])c1 |
| – | – | – | 0.5 (≈ 1.07 µM) | – | N#Cc1ccc(Oc2cccc(NC(=O)Nc3ccc(Cl)c(C(F)(F)F)c3)c2)cc1Cl |
| 256 (≈ 674 µM) | 128 (≈ 337 µM) | 256 (≈ 674 µM) | – | – | O=c1ccc(-c2ccc(NS(=O)(=O)c3ccc(F)c(Cl)c3)cc2)n[nH]1 |
| 512 (≈ 1270 µM) | 512 (≈ 1270 µM) | 256 (≈ 635 µM) | – | – | O=C(NC(=S)Nc1ccc(-c2ccc(=O)[nH]n2)cc1)c1ccc(F)c(Cl)c1 |
| 256 (≈ 638 µM) | 128 (≈ 319 µM) | 512 (≈ 1280 µM) | – | – | O=c1ccc(-c2ccc(NC(=S)Nc3ccc(Br)cc3)cc2)n[nH]1 |
| 512 (≈ 1330 µM) | > 1020 | > 1020 | – | – | O=C(Nc1ccc(Br)cc1)Nc1ccc(-c2ccc(=O)[nH]n2)cc1 |
| 512 (≈ 1180 µM) | 1020 (≈ 2370 µM) | 512 (≈ 1180 µM) | – | – | O=c1ccc(/C=C/c2ccc(NS(=O)(=O)c3cccc(Br)c3)cc2)n[nH]1 |
| 512 (≈ 1190 µM) | 16 (≈ 37.3 µM) | 256 (≈ 596 µM) | – | – | O=C(NC(=S)Nc1ccc(-c2ccc(=O)[nH]n2)cc1)c1cccc(Br)c1 |
| – | – | – | 0.25 (≈ 0.599 µM) | 1.13 | O=C(Nc1ccc(Cl)c(C(F)(F)F)c1)Nc1ccc(Cl)c(C(F)(F)F)c1 |
| 512 (≈ 1150 µM) | 256 (≈ 575 µM) | 1020 (≈ 2300 µM) | – | – | O=C(NC(=S)Nc1ccc(/C=C/c2ccc(=O)[nH]n2)cc1)c1ccc(Cl)c(Cl)c1 |
| – | – | – | > 128 | – | O=C(Nc1ccc(Oc2ccc(=O)[nH]n2)cc1)Nc1ccc(Cl)c(C(F)(F)F)c1 |
| 512 (≈ 1230 µM) | 128 (≈ 307 µM) | 512 (≈ 1230 µM) | – | – | O=c1ccc(/C=C/c2ccc(NC(=S)Nc3ccc(Cl)c(Cl)c3)cc2)n[nH]1 |
| 512 (≈ 1220 µM) | > 1020 | > 1020 | – | – | O=C(NC(=S)Nc1ccc(-c2ccc(=O)[nH]n2)cc1)c1ccc(Cl)c(Cl)c1 |
| 512 (≈ 1130 µM) | 128 (≈ 282 µM) | 256 (≈ 564 µM) | – | – | O=C(NC(=S)Nc1ccc(-c2ccc(=O)[nH]n2)cc1)c1c(Cl)cc(Cl)cc1Cl |
| 512 (≈ 1390 µM) | 128 (≈ 347 µM) | 256 (≈ 695 µM) | – | – | O=C(NC(=S)Nc1ccc(-c2ccc(=O)[nH]n2)cc1)c1cccc(F)c1 |
| 32 (≈ 81.8 µM) | 128 (≈ 327 µM) | 512 (≈ 1310 µM) | – | – | O=c1ccc(-c2ccc(NC(=S)Nc3ccc(Cl)c(Cl)c3)cc2)n[nH]1 |

| SMILES | MIC (Candida albicans) [µg/mL] | MIC (Staphylococcus aureus [1]) [µg/mL] | MIC (Escherichia coli) [µg/mL] | MIC (Staphylococcus aureus [2]) [µg/mL] | IC50 [3] [nM] |
| --- | --- | --- | --- | --- | --- |
| CNC(C)[C@@H]1CC[C@@H](N)[C@@H](O[C@H]2[C@H](O)[C@@H](O[C@H]3OC[C@](C)(O)[C@H](NC)[C@H]3O)[C@H](N)C[C@@H]2N)O1.CN[C@@H]1[C@@H](O)[C@@H](O[C@@H]2[C@@H](O)[C@H](O[C@H]3O[C@H](C(C)N)CC[C@H]3N)[C@@H](N)C[C@H]2N)OC[C@]1(C)O.CN[C@@H]1[C@@H](O)[C@@H](O[C@@H]2[C@@H](O)[C@H](O[C@H]3O[C@H](CN)CC[C@H]3N)[C@@H](N)C[C@H]2N)OC[C@]1(C)O (stereo partly specified) | – | 0.5 | – | – | – |
